Results on seven molecules are retold here after ChEMBL document CHEMBL1201862, “PubChem BioAssay data set” (2004).

Some test systems named below: A549; SK-MEL-28; HCT-15; IGROV-1; HCT-116; TK-10; LOX IMVI; SN12C; SNB-75; NCI-H522; T47D; SK-MEL-2; HOP-92; CAKI-1; MDA-N; KM12; UACC-257; NCI-H23; UACC-62; SF-268.
Experiment in all cases: NCI-60 cell line screen, 48 h

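Test compounds were applied to cells in 96-well plates for 48 hours at 5 doses. GI50 marks 50% less growth.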 The source made the active and inactive calls. Rule as the data show it: active = GI50 up to about 1.1 µM and inactive = higher.

As for `COc1ccc(-n2cnc3c(NC(CCSC)C(=O)O)ncnc32)cc1` (stereo not given), the GI50 with A549 was > 100 µM (inactive); with SK-MEL-28, > 100 µM (inactive); with HCT-15 it was more than 100 µM; with IGROV-1, > 100 µM (inactive); in the assay with HCT-116, > 100 µM (inactive); in the assay with TK-10, > 100 µM (inactive). For the same molecule, the GI50 in the assay with LOX IMVI, in the assay with SN12C, with SNB-75, with NCI-H522, in the assay with T47D and with SK-MEL-2 was > 100 µM (inactive) throughout. The GI50 is 74.1 µM (inactive) with HOP-92; > 100 µM (inactive) with CAKI-1; > 100 µM (inactive) with MDA-N; > 100 µM (inactive) in the assay with KM12; > 100 µM (inactive) in the assay on UACC-257; > 100 µM (inactive) in the assay on NCI-H23. Besides, the GI50 in the assay on UACC-62 and in the assay with SF-268 was > 100 µM (inactive) in each case.
For `O=C1c2ccccc2NC(=S)[C@@H]2CCCN12`, the GI50 was > 100 µM (inactive) with A549; > 100 µM (inactive) with SK-MEL-28; more than 100 µM with HCT-15; > 100 µM (inactive) in the assay on IGROV-1; > 100 µM (inactive) with HCT-116; > 100 µM (inactive) with TK-10. The GI50 with LOX IMVI, in the assay with SN12C, in the assay with SNB-75, in the assay with NCI-H522, in the assay with T47D and in the assay with SK-MEL-2 was > 100 µM (inactive) each time. The GI50 in the assay on HOP-92, in the assay with CAKI-1, in the assay with MDA-N, with KM12, with UACC-257 and with NCI-H23 was > 100 µM (inactive) in each case. Besides, the GI50 in the assay with UACC-62 and in the assay with SF-268 was > 100 µM (inactive) throughout.
Take `C=CCSc1nc2c(N)ncnc2n1C1OC(CO)C(O)C1O` (stereo not given): the GI50 is > 100 µM (inactive) in the assay with A549; > 100 µM (inactive) in the assay with SK-MEL-28; more than 100 µM in the assay with HCT-15; > 100 µM (inactive) in the assay on IGROV-1; > 100 µM (inactive) in the assay on HCT-116; > 100 µM (inactive) in the assay on TK-10. Besides, the GI50 in the assay with LOX IMVI, with SN12C, in the assay with SNB-75, in the assay on NCI-H522, in the assay with T47D and in the assay on SK-MEL-2 was > 100 µM (inactive) each time. Moreover, the GI50 in the assay with HOP-92 was > 100 µM (inactive); with CAKI-1 it was > 100 µM (inactive); with MDA-N, > 100 µM (inactive); in the assay on KM12 it was 80.2 µM (inactive); in the assay with UACC-257, > 100 µM (inactive); in the assay on NCI-H23, > 100 µM (inactive). Also, the GI50 in the assay on UACC-62 and in the assay on SF-268 was > 100 µM (inactive) in each case.
Regarding `Cc1ccc(-c2n[nH]c(=O)n2NC(=O)c2ccccc2C(=O)O)cc1`, the GI50 in the assay on A549 was > 100 µM (inactive); with SK-MEL-28, > 100 µM (inactive); in the assay with HCT-15 it was more than 100 µM; with IGROV-1, > 100 µM (inactive); with HCT-116, > 100 µM (inactive); in the assay on TK-10 it was > 100 µM (inactive). The GI50 is > 100 µM (inactive) in the assay with LOX IMVI; > 100 µM (inactive) in the assay on SN12C; > 100 µM (inactive) in the assay with SNB-75; > 100 µM (inactive) with NCI-H522; 72.8 µM (inactive) in the assay on T47D; > 100 µM (inactive) in the assay on SK-MEL-2. The GI50 with HOP-92, with CAKI-1, in the assay on MDA-N, in the assay on KM12, in the assay with UACC-257 and with NCI-H23 was > 100 µM (inactive) throughout. The GI50 in the assay on UACC-62 and with SF-268 was > 100 µM (inactive) each time.
`CCC1(O)CC(OC2CC(N(C)C)C(OC3CC(O)C(OC4CCC(=O)C(C)O4)C(C)O3)C(C)O2)c2c(cc3c(c2O)C(=O)c2c(O)ccc(O)c2C3=O)C1C(=O)OC` (stereo not given): the GI50 was < 0.01 µM (active) in the assay with A549; < 0.01 µM (active) in the assay on SK-MEL-28; less than 0.01 µM in the assay with HCT-15; < 0.01 µM (active) in the assay on IGROV-1; < 0.01 µM (active) in the assay on HCT-116; < 0.01 µM (active) with TK-10. Besides, the GI50 with LOX IMVI, with SN12C, in the assay on SNB-75, in the assay on NCI-H522, in the assay on T47D and in the assay on SK-MEL-2 was < 0.01 µM (active) in each case. The GI50 in the assay with HOP-92, with CAKI-1, in the assay on MDA-N, in the assay with KM12, in the assay on UACC-257 and in the assay with NCI-H23 was < 0.01 µM (active) throughout. Also, the GI50 in the assay on UACC-62 and in the assay on SF-268 was < 0.01 µM (active) throughout.
On to `c1ccc(Cn2c(-c3ccc(-c4ccccc4)cc3)cc3ccccc32)cc1`, for which the GI50 was > 100 µM (inactive) in the assay with A549; > 100 µM (inactive) in the assay with SK-MEL-28; more than 100 µM in the assay with HCT-15; 67.5 µM (inactive) with IGROV-1; > 100 µM (inactive) in the assay with HCT-116; > 100 µM (inactive) with TK-10. The GI50 in the assay on LOX IMVI is > 100 µM (inactive); with SN12C, > 100 µM (inactive); with SNB-75, 58.1 µM (inactive); in the assay with NCI-H522 it was 28.2 µM (inactive); in the assay with T47D, > 100 µM (inactive); with SK-MEL-2, 94.6 µM (inactive). Moreover, the GI50 in the assay with HOP-92, with CAKI-1, in the assay with MDA-N, in the assay with KM12, with UACC-257 and in the assay with NCI-H23 was > 100 µM (inactive) each time. The GI50 in the assay on UACC-62 and in the assay with SF-268 was > 100 µM (inactive) in each case.
Turning to `O=C1C2CC=CCC2C(=O)N1n1c(Cc2ccc(Cl)cc2)n[nH]c1=O` (stereo not given), the GI50 with A549 was > 100 µM (inactive); in the assay on SK-MEL-28 it was > 100 µM (inactive); in the assay with HCT-15, more than 100 µM; with IGROV-1, > 100 µM (inactive); in the assay on HCT-116, > 100 µM (inactive); in the assay with TK-10 it was > 100 µM (inactive). Further, the GI50 in the assay on LOX IMVI, in the assay with SN12C, in the assay with SNB-75, in the assay on NCI-H522, in the assay on T47D and in the assay with SK-MEL-2 was > 100 µM (inactive) in each case. In addition, the GI50 in the assay with HOP-92, with CAKI-1, with MDA-N, in the assay on KM12, with UACC-257 and with NCI-H23 was > 100 µM (inactive) in each case. The GI50 in the assay with UACC-62 and with SF-268 was > 100 µM (inactive) throughout.
